Test results from ChEMBL document CHEMBL1201862, “PubChem BioAssay data set” (2004).
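Five concentrations, 48 hours, 96-well plates. The concentration for 50% growth inhibition is given as GI50.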 Calls of active or inactive are those of the source. Rule as the data show it: active = GI50 up to about 1.1 µM and inactive = higher.

Columns and labels:
Assay in all cases: DTP human tumour cell line panel, 48 h
[1] = system: HCT-116
[2] = system: K562
[3] = system: DU-145
[4] = system: OVCAR-5
[5] = system: OVCAR-8
[6] = system: SR
[7] = system: NCI/ADR-RES
[8] = system: NCI-H460
[9] = system: SF-268
[10] = system: HCT-15
[11] = system: Hs-578T
[12] = system: MCF7
[13] = system: MDA-MB-231
[14] = system: NCI-H522
[15] = system: HCC 2998
[16] = system: SF-539
[17] = system: RXF 393
[18] = system: MOLT-4
[19] = system: SN12C
[20] = system: UACC-62

SMILES | GI50 [1] | GI50 [2] | GI50 [3] | GI50 [4] | GI50 [5] | GI50 [6] | GI50 [7] | GI50 [8] | GI50 [9] | GI50 [10] [µM] | GI50 [11] | GI50 [12] | GI50 [13] | GI50 [14] | GI50 [15] | GI50 [16] | GI50 [17] | GI50 [18] | GI50 [19] | GI50 [20]
O=C(NCP(=O)(c1ccccc1)c1ccccc1)OCc1ccccc1 | > 100 µM (inactive) | > 100 µM (inactive) | > 100 µM (inactive) | > 100 µM (inactive) | > 100 µM (inactive) | > 100 µM (inactive) | 73.5 µM (inactive) | > 100 µM (inactive) | 21.4 µM (inactive) | > 100 | 43.6 µM (inactive) | > 100 µM (inactive) | 60.1 µM (inactive) | 39.4 µM (inactive) | > 100 µM (inactive) | > 100 µM (inactive) | 82.6 µM (inactive) | > 100 µM (inactive) | > 100 µM (inactive) | > 100 µM (inactive)
COc1ccc(CNc2nc3ccccc3nc2C(=O)O)cc1 | 51.6 µM (inactive) | 93.3 µM (inactive) | 66.4 µM (inactive) | > 100 µM (inactive) | > 100 µM (inactive) | 41.1 µM (inactive) | 38.9 µM (inactive) | 55.5 µM (inactive) | > 100 µM (inactive) | 23.1 | > 100 µM (inactive) | > 100 µM (inactive) | > 100 µM (inactive) | 72.9 µM (inactive) | > 100 µM (inactive) | > 100 µM (inactive) | > 100 µM (inactive) | > 10 µM (inactive) | > 100 µM (inactive) | > 100 µM (inactive)
CC1(C)CC2=C(Sc3ccccc3N2)C(=O)C1C(=O)C(=O)Nc1cc(Cl)ccc1Cl (stereo not given) | > 100 µM (inactive) | > 100 µM (inactive) | > 100 µM (inactive) | > 100 µM (inactive) | > 100 µM (inactive) | > 100 µM (inactive) | 63.2 µM (inactive) | 14.9 µM (inactive) | > 100 µM (inactive) | > 100 | > 100 µM (inactive) | > 100 µM (inactive) | > 100 µM (inactive) | > 100 µM (inactive) | > 100 µM (inactive) | > 100 µM (inactive) | > 100 µM (inactive) | 60 µM (inactive) | > 100 µM (inactive) | > 100 µM (inactive)
COC(=O)C(Cc1ccccc1)OC(=O)C(N)CC(=O)O (stereo not given) | > 100 µM (inactive) | > 100 µM (inactive) | > 100 µM (inactive) | > 100 µM (inactive) | > 100 µM (inactive) | > 100 µM (inactive) | > 100 µM (inactive) | > 100 µM (inactive) | > 100 µM (inactive) | > 100 | > 100 µM (inactive) | > 100 µM (inactive) | > 100 µM (inactive) | > 100 µM (inactive) | > 100 µM (inactive) | > 100 µM (inactive) | > 100 µM (inactive) | > 100 µM (inactive) | > 100 µM (inactive) | > 100 µM (inactive)
CCOC(=O)/C=C1\Nc2ccccc2C12CCc1c([nH]c3ccccc13)C2C(=O)OCC (stereo not given) | 17.6 µM (inactive) | 48.4 µM (inactive) | 98.2 µM (inactive) | > 100 µM (inactive) | 88.7 µM (inactive) | 25.8 µM (inactive) | 11.8 µM (inactive) | 12 µM (inactive) | 30.1 µM (inactive) | 46.5 | 58.7 µM (inactive) | 17.5 µM (inactive) | 18 µM (inactive) | 21.5 µM (inactive) | 59.3 µM (inactive) | 71.8 µM (inactive) | > 100 µM (inactive) | 8.79 µM (inactive) | 44.3 µM (inactive) | 59.3 µM (inactive)
CN(C)/C=N/S(=O)(=O)c1nn2c(C=O)c(-c3ccc(-c4ccc([N+](=O)[O-])cc4)o3)nc2s1 | 1.34 µM (inactive) | 1.1 µM (active) | 3.64 µM (inactive) | 4.04 µM (inactive) | 8.04 µM (inactive) | 0.883 µM (active) | 8.15 µM (inactive) | 1.63 µM (inactive) | 4.61 µM (inactive) | 2.21 | 3.88 µM (inactive) | 2.13 µM (inactive) | 2.65 µM (inactive) | 1.38 µM (inactive) | 5.33 µM (inactive) | 2.15 µM (inactive) | 1.91 µM (inactive) | 1.19 µM (inactive) | 1.71 µM (inactive) | 3.68 µM (inactive)
